From PubChem BioAssay (NCI)
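Following 48 hours of exposure in 96-well plates, responses at five concentrations were used to interpolate endpoints linearly. Definition used: TGI = concentration required for complete inhibition of growth.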

Assays:
Assay in all cases: DTP human tumour cell line panel, 48 h
DLD-1 colon = tested on: DLD-1 colon
DMS 114 small cell lung = tested on: DMS 114 small cell lung
DMS 273 small cell lung = tested on: DMS 273 small cell lung
HCT-15 colon = tested on: HCT-15 colon
HL-60(TB) leukemia = tested on: HL-60(TB) leukemia
HOP-18 NSCLC = tested on: HOP-18 NSCLC
HOP-62 NSCLC = tested on: HOP-62 NSCLC
IGROV1 ovarian = tested on: IGROV1 ovarian
KM20L2 colon = tested on: KM20L2 colon
LXFL 529 NSCLC = tested on: LXFL 529 NSCLC
M19-MEL melanoma = tested on: M19-MEL melanoma
SF-295 CNS = tested on: SF-295 CNS
SNB-78 CNS = tested on: SNB-78 CNS
XF 498 CNS = tested on: XF 498 CNS
HS 578T breast = tested on: HS 578T breast
MDA-N = tested on: MDA-N

Compound | TGI (DLD-1 colon) [µM] | TGI (DMS 114 small cell lung) [µM] | TGI (DMS 273 small cell lung) [µM] | TGI (HCT-15 colon) [µM] | TGI (HL-60(TB) leukemia) [µM] | TGI (HOP-18 NSCLC) [µM] | TGI (HOP-62 NSCLC) [µM] | TGI (IGROV1 ovarian) [µM] | TGI (KM20L2 colon) [µM] | TGI (LXFL 529 NSCLC) [µM] | TGI (M19-MEL melanoma) [µM] | TGI (SF-295 CNS) [µM] | TGI (SNB-78 CNS) [µM] | TGI (XF 498 CNS) [µM] | TGI (HS 578T breast) [µM] | TGI (MDA-N) [µM]
CNC(=O)NCNC(=O)NC | > 100 | > 100 | > 100 | > 100 | > 100 | > 100 | > 100 | > 100 | > 100 | > 100 | > 100 | > 100 | > 100 |  |  | 
Cc1cccc(-n2c(N)c(-c3nc4ccccc4[nH]3)sc2=S)c1 | 80.1 | 57.3 | 41.7 | 62.3 | 64 | > 100 | 78.9 | 78 |  | 53.4 | 64 | 68.1 |  |  |  | 
COc1ccc(/C(=N\NC(=O)NN)C(c2ccc(OC)cc2)C2(O)C(=O)Nc3c(Cl)cc(Cl)cc32)cc1 (centres undefined) | > 100 | > 100 |  |  | > 100 | > 100 | > 100 | > 100 | > 100 | > 100 | > 100 | > 100 | > 100 | > 100 |  | 
CCOC(=O)C(=O)C=P(c1ccccc1)(c1ccccc1)c1ccccc1 | > 100 | > 100 | > 100 | > 100 | > 100 | > 100 | > 100 | > 100 | > 100 | > 100 | > 100 | > 100 | > 100 |  |  | 
COC1CCON1C(=O)c1ccccc1 (centres undefined) |  |  |  | > 10 | > 10 |  | > 10 | > 10 |  |  |  | > 10 |  |  | > 10 | > 10
CCOC(=O)C1SC(=Nc2ccc(OC)c(OC)c2)N=C1C (centres undefined) | > 100 | 80.5 | > 100 | > 100 | 49.1 | > 100 | > 100 | > 100 | 76.3 | > 100 |  | > 100 | > 100 | 68.8 |  | 
C=CCNC(=S)N1CC(C)C(=O)Nc2cc(Cl)ccc21 (centres undefined) | > 100 | > 100 | > 100 | > 100 | > 100 | > 100 | > 100 | > 100 | > 100 | > 100 | > 100 | > 100 | > 100 |  |  | 
CCCCCCCCCCCC(=O)OC[C@H](C[As](=O)(O)O)OC(=O)CCCCCCCCCCC | 26.7 | 4.77 | 15 | 23.9 | > 28.6 | 20.3 | 31.7 | 4.07 | 18.8 | 14 | 22 | 27 | 9.45 | 24 | 8.69 | 14.8
CC1(c2sccc2Cl)CC(c2sccc2Cl)=C(C#N)C(=C(C#N)C#N)N1 (centres undefined) |  |  |  | 35 | > 100 |  | 37.3 | 42.4 |  |  |  | 35.2 |  |  | 48.5 | 35
O=C(Nc1ccc(Cl)cc1C(F)(F)F)C(=O)C1CCCS1(=O)=O (centres undefined) | > 100 | > 100 |  | > 100 | > 100 | > 100 | > 100 | > 10 | > 100 | > 100 | > 100 | > 100 | > 100 | > 100 |  | 
COC(=O)C1CCC(=O)N1C(c1cc(OC)c(OC)c(OC)c1)c1cc(OC)c(OC)c(OC)c1 (centres undefined) |  |  |  | > 100 | > 100 |  | > 100 | > 100 |  |  |  | > 100 |  |  | > 100 | > 100
N#CC(/C(CCC(=O)Nc1ccc(Cl)cc1)=N/NC(=O)c1cc2ccccc2cc1O)c1ccccc1 (centres undefined) | > 100 | 87.7 |  |  | 33 | 89.8 | 85.3 | > 100 | > 100 | > 100 | > 100 | > 100 | > 100 | > 100 |  | 
COC(=O)C1CCN(C(=O)OC(C)(C)C)CC1 |  |  |  | > 100 | > 100 |  | > 100 | > 100 |  |  |  | > 100 |  |  | > 100 | > 100
